Measurements from ChEMBL document CHEMBL5543131, “Discovery of Highly Potent Solute Carrier 13 Member 5 (SLC13A5) Inhibitors for the Treatment of Hyperlipidemia” (J Med Chem, 2024).
Calls of active or inactive are those of the source. No cut-off for these calls is given here.

How the values were obtained:
Mus musculus [1] = test: Lipid lowering activity in starvation-induced hyperlipidemic male C57BL/6J mouse model assessed as downregulation of ACLY gene expression level starved for 48 hrs followed by oral administration of compound and measured after 2 hrs by RT-qPCR analysis; type: functional, organism-based; conditions: dose 10-30 mg/kg
Mus musculus [2] = test: Lipid lowering activity in starvation-induced hyperlipidemic male C57BL/6J mouse model assessed as decrease in triglyceride level in plasma at 10 to 30 mg/kg, ip starved for 48 hrs followed by compound administration and measured after 2 hrs; type: functional, organism-based; conditions: dose 10-30 mg/kg
AML12 [3] = test: Effect on SCL13A5 mRNA expression in oleic acid and palmitic acid induced mouse AML12 cells at 3 to 30 uM by RT-qPCR analysis; type: functional, cell-based; conditions: dose 3-30 µM
HepG2 [4] = test: Lipid lowering effect on PCN-induced lipid accumulation in human HepG2 cells assessed as decrease in ACLY mRNA expression level at 3 to 30 uM by RT-qPCR analysis; type: functional, cell-based; conditions: dose 3-30 µM
Mus musculus [5] = test: Lipid lowering activity in PCN-induced hyperlipidemic male C57BL/6J mouse model assessed as decrease in HMGCR mRNA expression level preadministered intragastrically with compound for 15 to 30 mins followed by PCN administration and measured after 7 days by RT-qPCR analysis; type: functional, organism-based; conditions: dose 10-30 mg/kg, route ig, time 15-10110 min
AML12 [6] = test: Lipid lowering effect on PCN-induced lipid accumulation in mouse AML12 cells assessed as decrease in total cholesterol level preincubated with compound for 30 mins followed by PCN addition and measured after 24 hrs; type: functional, cell-based; conditions: dose 3-30 µM, time 24.5 hrs
AML12 [7] = test: Lipid lowering effect on PCN-induced lipid accumulation in mouse AML12 cells assessed as decrease in triglyceride level preincubated with compound for 30 mins followed by PCN addition and measured after 24 hrs; type: functional, cell-based; conditions: dose 3-30 µM, time 24.5 hrs
Hepatocyte [8] = test: Lipid lowering effect on PCN-induced lipid accumulation in mouse Primary hepatocyte assessed as decrease in FASN mRNA expression level at 3 to 30 uM by RT-qPCR analysis; type: functional, cell-based; conditions: dose 3-30 µM
Mus musculus [9] = test: In vivo inhibition of SLC13A5 in starvation-induced hyperlipidemic male C57BL/6J mouse model assessed as decrease in liver citrate level at 30 mg/kg, ip starved for 48 hrs followed by compound administration and measured after 2 hrs; type: functional, organism-based
[10] = target: Na(+)/citrate cotransporter (Homo sapiens) (UniProt Q86YT5); test: Competitive inhibition of SLC13A5 (unknown origin) assessed as increase in Km with constant Vmax upto 50 uM
Chain of Na(+)/citrate cotransporter (Homo sapiens) (Q86YT5 whole entry, looked up): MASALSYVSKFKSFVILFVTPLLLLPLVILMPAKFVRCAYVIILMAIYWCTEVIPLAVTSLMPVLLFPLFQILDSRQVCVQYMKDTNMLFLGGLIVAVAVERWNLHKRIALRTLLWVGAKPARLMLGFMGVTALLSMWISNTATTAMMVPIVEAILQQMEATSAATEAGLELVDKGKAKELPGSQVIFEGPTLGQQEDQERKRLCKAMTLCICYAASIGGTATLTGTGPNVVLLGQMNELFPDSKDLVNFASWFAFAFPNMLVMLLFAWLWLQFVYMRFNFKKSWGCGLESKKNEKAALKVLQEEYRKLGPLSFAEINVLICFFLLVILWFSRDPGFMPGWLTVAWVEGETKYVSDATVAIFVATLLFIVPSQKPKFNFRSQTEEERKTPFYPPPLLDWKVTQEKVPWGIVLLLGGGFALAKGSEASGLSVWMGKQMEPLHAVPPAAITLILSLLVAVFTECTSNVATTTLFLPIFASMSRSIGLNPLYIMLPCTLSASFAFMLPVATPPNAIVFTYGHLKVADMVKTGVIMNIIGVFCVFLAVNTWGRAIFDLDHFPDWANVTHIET

AML12 [11] = test: Effect on lipid accumulation in oleic and palmitic acid induced mouse AML12 cells assessed as decrease in triglyceride level; type: functional, cell-based; conditions: dose 3-30 µM
AML12 [12] = test: Lipid lowering effect on PCN-induced lipid accumulation in mouse AML12 cells assessed as decrease in ACC1 mRNA expression level at 3 to 30 uM preincubated with compound for 30 mins followed by PCN addition and measured after 24 hrs by RT-qPCR analysis; type: functional, cell-based; conditions: dose 3-30 µM, time 24.5 hrs
[13] = target: T1, Na(+)/dicarboxylate cotransporter 3 (Homo sapiens) (UniProt Q8WWT9); test: Inhibition of NaDC3 (unknown origin) citrate transport activity
T1 sequence (whole entry): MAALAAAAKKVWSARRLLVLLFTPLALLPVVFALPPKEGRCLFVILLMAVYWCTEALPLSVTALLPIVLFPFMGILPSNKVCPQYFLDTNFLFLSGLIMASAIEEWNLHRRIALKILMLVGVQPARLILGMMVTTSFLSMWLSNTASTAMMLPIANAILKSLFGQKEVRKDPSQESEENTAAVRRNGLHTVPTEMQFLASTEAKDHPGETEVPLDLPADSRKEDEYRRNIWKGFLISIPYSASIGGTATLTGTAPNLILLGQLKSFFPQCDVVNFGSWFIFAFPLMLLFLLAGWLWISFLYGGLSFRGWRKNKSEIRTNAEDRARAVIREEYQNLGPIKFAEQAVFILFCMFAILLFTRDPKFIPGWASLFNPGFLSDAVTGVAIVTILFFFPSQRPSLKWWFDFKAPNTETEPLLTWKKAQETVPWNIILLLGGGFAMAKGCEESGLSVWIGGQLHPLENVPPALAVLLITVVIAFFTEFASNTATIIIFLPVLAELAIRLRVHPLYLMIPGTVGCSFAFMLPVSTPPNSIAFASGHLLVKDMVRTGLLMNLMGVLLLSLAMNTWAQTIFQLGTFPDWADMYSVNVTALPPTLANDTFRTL

Hepatocyte [14] = test: Lipid lowering effect on PCN-induced lipid accumulation in mouse Primary hepatocyte assessed as decrease in ACLY mRNA expression level at 3 to 30 uM by RT-qPCR analysis; type: functional, cell-based; conditions: dose 3-30 µM
AML12 [15] = test: Effect on lipid accumulation in oleic and palmitic acid induced mouse AML12 cells assessed as decrease in total cholesterol level; type: functional, cell-based; conditions: dose 3-30 µM
Mus musculus [16] = test: In vivo inhibition of SLC13A5 in starvation-induced hyperlipidemic male C57BL/6J mouse model assessed as increase in plasma citrate level at 30 mg/kg, ip starved for 48 hrs followed by compound administration and measured after 2 hrs; type: functional, organism-based
AML12 [17] = test: Lipid lowering effect on PCN-induced lipid accumulation in mouse AML12 cells assessed as decrease in FASN mRNA expression level at 3 to 30 uM preincubated with compound for 30 mins followed by PCN addition and measured after 24 hrs by RT-qPCR analysis; type: functional, cell-based; conditions: dose 3-30 µM, time 24.5 hrs
Mus musculus [18] = test: Lipid lowering activity in PCN-induced hyperlipidemic male C57BL/6J mouse model assessed as decrease in plasma triglyceride level at 10 to 30 mg/kg, IG preadministered with compound for 15 to 30 mins followed by PCN administration and measured after 7 days; type: functional, organism-based; conditions: dose 10-30 mg/kg, time 15-10110 min
Mus musculus [19] = test: Lipid lowering activity in starvation-induced hyperlipidemic male C57BL/6J mouse model assessed as decrease in size of lipid droplets in liver starved for 48 hrs followed by intraperitoneal administration of compound and measured after 2 hrs by Hematoxylin and eosin staining based analysis; type: functional, organism-based; conditions: dose 10-30 mg/kg, route ip
Hepatocyte [20] = test: Lipid lowering effect on PCN-induced lipid accumulation in mouse Primary hepatocyte assessed as decrease in intracellular total cholesterol level; type: functional, cell-based; conditions: dose 3-30 µM
Mus musculus [21] = test: Lipid lowering activity in starvation-induced hyperlipidemic male C57BL/6J mouse model assessed as decrease in number of lipid droplets in liver starved for 48 hrs followed by intraperitoneal administration of compound and measured after 2 hrs by Hematoxylin and eosin staining based analysis; type: functional, organism-based; conditions: dose 10-30 mg/kg, route ip
AML12 [22] = test: Effect on SCL13A5 mRNA expression in PCN-induced mouse AML12 cells at 3 to 30 uM preincubated with compound for 30 mins followed by PCN addition and measured after 24 hrs by RT-qPCR analysis; type: functional, cell-based; conditions: dose 3-30 µM, time 24.5 hrs
HepG2 [23] = test: Lipid lowering effect on oleic and palmitic acid induced lipid accumulation in human HepG2 cells assessed as decrease in intracellular triglyceride level; type: functional, cell-based; conditions: dose 3-30 µM
HepG2 [24] = test: Lipid lowering effect on PCN-induced lipid accumulation in human HepG2 cells assessed as decrease in FASN mRNA expression level at 3 to 30 uM by RT-qPCR analysis; type: functional, cell-based; conditions: dose 3-30 µM
HepG2 [25] = test: Lipid lowering effect on PCN-induced lipid accumulation in human HepG2 cells assessed as decrease in intracellular total cholesterol level; type: functional, cell-based; conditions: dose 3-30 µM
Mus musculus [26] = test: Lipid lowering activity in starvation-induced hyperlipidemic male C57BL/6J mouse model assessed as decrease in NEFA level in plasma at 10 to 30 mg/kg, ip starved for 48 hrs followed by compound administration and measured after 2 hrs; type: functional, organism-based; conditions: dose 10-30 mg/kg

SMILES: O=C(O)CC(O)(CCc1ccc(-c2ccccc2)cc1)C(=O)O (stereo unspecified)
- Activity (Mus musculus [1]): Dose-Dependent Effect
- Activity (Mus musculus [2]): Active
- Activity (AML12 [3]): inactive
- Activity (HepG2 [4]): Active
- Activity (Mus musculus [5]): Dose-Dependent Effect
- Activity (AML12 [6]): Dose-Dependent Effect
- Activity (AML12 [7]): Dose-Dependent Effect
- Activity (Hepatocyte [8]): Active
- inhibition (Mus musculus [9]): Active
- inhibition [10]: Active
- Activity (AML12 [11]): Dose-Dependent Effect
- Activity (AML12 [12]): Active
- inhibition [13]: inactive
- Activity (Hepatocyte [14]): Active
- Activity (AML12 [15]): Dose-Dependent Effect
- inhibition (Mus musculus [16]): Active
- Activity (AML12 [17]): Active
- Activity (Mus musculus [18]): Active
- Activity (Mus musculus [19]): Dose-Dependent Effect
- Activity (Hepatocyte [20]): Dose-Dependent Effect
- Activity (Mus musculus [21]): Dose-Dependent Effect
- Activity (AML12 [22]): inactive
- Activity (HepG2 [23]): Dose-Dependent Effect
- Activity (HepG2 [24]): Active
- Activity (HepG2 [25]): Dose-Dependent Effect
- Activity (Mus musculus [26]): Active
